pIC50: −log10 of the molar value. Counter-ions that a name gives are not always drawn. Like-named read-outs stand apart in the source and are kept apart here.
What was measured:
PIM-1 = PIM-1 (Homo sapiens (Human), UniProt P11309); assay: PIM-1 Enzyme Assay; type: biochemical
Outline: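 Radiometric kinase assay in 20 mM K+MOPS pH 7.4, 10 mM MgCl2, 0.005% Tween-20, 1 mM DTT, 2% DMSO final; 60 min at 22° C, stopped with H3PO4, product captured on P81 filter and counted by scintillation. IC50 from 4-parameter logistic fit of percent of control.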

[1] = tested on: K562 (Ph+chronic myelogenous leukemia); assay: Cellular Proliferation Assay, cell line B; type: cell-based; conditions: Homo sapiens; K562, 72 hours, CelltiterBlue; read-out: Cell Line B antiproliferative IC50
Method: (§1) The assay for determination of the antiproliferative activity of multiple Pim inhibitors in the JAK2-driven cell lines was conducted as follows. Cells were plated out to 96-well plates at an initial density of 10,000 cells/well in 95 pt. Compounds were prepared at […] in DMSO by conducting 3-fold serial dilutions to give a 10-point dosing curve having a high dose of 1000 μM. Aliquots (5 μt) of these dilutions were then transferred to the appropriate wells of the 96-well plates containing cells to yield a final DMSO concentration of 0.5%. The cells were then incubated with compound for 72 hours at 37° C., 5% CO2. CelltiterBlue reagent (Promega, Catalog #: G8080) was then added (20 μL/well) and incubated at 37° C., 5% CO2 for 1-8 hours depending on the cell line being analyzed. The plate was then quantified employing a fluorescence plate reader (Model: Gemini [Molecular Devices]; Settings: 560 nm (Ex)/590 nm (Em) 570 nm (cut-off) [CellTiter Blue Assay].
(§2) The values for each well were then converted to a percent of untreated control (POC). These POC values were then plotted as a function of compound concentration. A 4-parameter curve-fit analysis was performed for each compound dilution and an IC50 value was calculated from this curve.
(§3) Cell lines • A: PC3 (Androgen independent prostate cancer) • B: K562 (Ph+chronic myelogenous leukemia) • C: MV4-11 (Acute myelogenous leukemia) • D: BxPC3 (Pancreatic Cancer) • E: HepG2 (Hepatocellular Carcinoma) • F: BaF3 (Mouse pro-B-cell line) • G: BaF3 TEL-JAK2 (Mouse pro-B-cell transformed with TEL-JAK2 fusion) • H: BaF2 BCR-Ab1 (Mouse pro-B-cell transformed with BCR-Ab1 fusion)

[2] = tested on: BxPC3 (Pancreatic Cancer); assay: Cellular Proliferation Assay, cell line D; type: cell-based; conditions: Homo sapiens, BXPC-3; BxPC3, 72 hours, CelltiterBlue; read-out: Cell Line D antiproliferative IC50
Method: as §1, §2, §3

[3] = tested on: HepG2 (Hepatocellular Carcinoma); assay: Cellular Proliferation Assay, cell line E; type: cell-based; conditions: Homo sapiens; HepG2, 72 hours, CelltiterBlue; read-out: Cell Line E antiproliferative IC50
Method: as §1, §2, §3

[4] = tested on: BaF3 (Mouse pro-B-cell line); assay: Cellular Proliferation Assay, cell line F; type: cell-based; conditions: BaF3, 72 hours, CelltiterBlue, read-out: Cell Line F antiproliferative IC50
Method: as §1, §2, §3

[5] = tested on: BaF3 TEL-JAK2 (Mouse pro-B-cell transformed with TEL-JAK2 fusion); assay: Cellular Proliferation Assay, cell line G; type: cell-based; conditions: BaF3 TEL-JAK2, 72 hours, CelltiterBlue, read-out: Cell Line G antiproliferative IC50
Method: as §1, §2, §3

CD4+ T cells = assay: T Cell in vitro Functional Assay (B): IL-2 production; type: cell-based; conditions: Mus musculus, anti-CD3/anti-CD28, 40 hours, ELISA
Method: The in vitro assays to assess the effects of the compounds of Examples 16, 18 and 26 on T cells were conducted as described in assays A, B, C and D below. CD4+ T cells were isolated from red blood cell-depleted splenocytes of C57B1/6J mice (Jackson Laboratories, catalog #000664) using CD4+ T cell isolation kit (Miltenyi, catalog #130-090-860).
In assay (A), purified CD4+ T cells were plated in 96 well plates at 90000 cells/well in 90 μL. A dilution series of the compounds of Examples 16, 18 and 26 were prepared at 100× the final concentration in DMSO and then diluted 10-fold into complete media (10× stocks). 10 μL of 10×compound stocks were added to appropriate wells of 96 well plates containing cells and incubated for 1 hour at 37° C., 5% CO2. The cell/compound mixtures were then transferred to a 96 well plate coated with anti-CD3 mAb (1 μg/mL; BD Pharmingen, catalog #553057) and soluble anti-CD28 mAb (1 μg/mL; BD Pharmingen, catalog #553294) was added. Plates were cultured at 37° C., 5% CO2 for 40 hours. 20 μL of the culture were removed for determination of proliferation using the CellTitre-Glo™ luminescent assay (Promega, Catalog #G7571) according to the manufacturer's protocol. The plate was quantified on a Packard TopCount instrument using luminescence protocol and data was analyzed using Prism software.
In assay (B), purified CD4+ cells were treated with compound and stimulated as described for assay (A). After 40 hours, supernatants were assayed for IL-2 using R&D duo set ELISA kits (catalog #DY402). ELISA plates were quantified relative to a standard curve using Molecular Devices Versamax Reader at […] and Softmax Pro software.
For each of assays A, B, C and D, the values for each well were converted to a percent of vehicle-treated (DMSO) control (POC). These POC values were plotted as a function of compound concentration and an IC50 calculated using a 4-parameter curve-fit analysis program.

[6] = tested on: MV4-11 (Acute myelogenous leukemia); assay: Cellular Proliferation Assay, cell line C; type: cell-based; conditions: Homo sapiens; MV4-11, 72 hours, CelltiterBlue; read-out: Cell Line C antiproliferative IC50
Method: as §1
The values for each well were then converted to a percent of untreated control (POC). These POC values were then plotted as a function of compound concentration. A 4-parameter curve-fit analysis was performed for each compound dilution and an IC50 value was calculated from this curve. […]

Sequence of PIM-1 (P11309 whole entry, species assumed): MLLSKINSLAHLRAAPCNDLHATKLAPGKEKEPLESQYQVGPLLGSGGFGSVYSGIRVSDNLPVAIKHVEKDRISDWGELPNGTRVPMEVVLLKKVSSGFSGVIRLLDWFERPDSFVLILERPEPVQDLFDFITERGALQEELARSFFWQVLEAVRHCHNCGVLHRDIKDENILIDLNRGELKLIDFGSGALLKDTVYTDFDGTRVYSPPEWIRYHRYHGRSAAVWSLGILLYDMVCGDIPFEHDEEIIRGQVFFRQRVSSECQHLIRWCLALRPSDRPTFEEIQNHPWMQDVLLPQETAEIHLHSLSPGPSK

| SMILES | pIC50 (PIM-1; 35 μM ATP, 0.25 nM PIM-1) | pIC50 [1] | pIC50 [2] | pIC50 [3] | pIC50 [4] | pIC50 [5] | pIC50 (CD4+ T cells) | pIC50 [6] | pIC50 (PIM-1) |
| --- | --- | --- | --- | --- | --- | --- | --- | --- | --- |
| c1cc(OCC2CCCNC2)c2nc(-c3nnc4ccccn34)ccc2c1 (centres unmarked) [Example 16, 2-([1,2,4]Triazolo[4,3-a]pyridin-3-yl)-8-(piperidin-3-ylmethoxy)quinoline] | 9.00 | > 5.00 | < 5.00 | < 5.00 | > 5.70 | > 5.70 | ≥ 6.00 | – | – |
| CC(C)(CN)COc1cccc2ccc(-c3nnc4ccccn34)nc12 [Example 18, 3-(2-([1,2,4]Triazolo[4,3-a]pyridin-3-yl)quinolin-8-yloxy)-2,2-dimethylpropan-1-amine] | – | > 5.30 | > 5.00 | > 5.00 | > 5.70 | > 5.70 | ≥ 6.00 | > 5.70 | – |
| F[C@@H]1CNCCC1Oc1cccc2ccc(-c3nnc4ccccn34)nc12 (stereo in doubt) [Example 26, 2-([1,2,4]triazolo[4,3-a]pyridin-3-yl)-8-((cis)-3-fluoropiperidin-4-yloxy)quinoline dihydrochloride] | – | > 5.00 | – | – | > 5.70 | > 5.70 | ≥ 5.30 | > 5.70 | 8.52 |

Source: patent US8575145B2, “Triazolopyridine compounds as PIM kinase inhibitors” (Array BioPharma Inc., priority 2008, dated 2013)
